PMC3749181, “Rapid Identification of Antifungal Compounds against Exserohilum rostratum Using High Throughput Drug Repurposing Screens” (PLoS ONE, 2013)
Several values for one entry are separate records, joined by “and”; a condition that tells them apart may be missing. Equal entries are not always repeated. Where two headings read alike, the source gives them in different places.

Legend:
E. rostratum [1] = test: drug repurposing screen against E. rostratum; format: cell-based, Exserohilum rostratum; details: in our experiments
Text: The library of pharmacologically active compounds (LOPAC) consists of 1280 small molecules with characterized biological activities. The LOPAC library (Sigma-Aldrich) has been extensively used for HTS assay validations, [18]. The NIH Chemical Genomics Center Pharmaceutical (NPC) collection was constructed in-house through a combined effort of compound purchasing and custom synthesis and recently expanded to 4096 compounds. In this drug libarary, 52% of which are drugs approved for human or animal use by the United States Food and Drug Administration (FDA), 22% are drugs approved in Europe, Canada, or Japan, and the remaining 25% are compounds that have entered clinical trials or are research compounds commonly used in biomedical research. […] 2.5 µl/well PBS was dispensed into 1536-well plates using a Multidrop-Combi dispenser. Compound in DMSO solution was transferred in a volume of 23 nl/well using a NX-TR pintool station (WAKO Scientific Solutions, San Diego, CA). This additional PBS step for compound addition was designed to prevent the potential fungal contamination of compound libraries. The hyphal fragments in PBS were then added at 2.5 µl/well for a final seeding density of 15,000 hyphal fragments/well using the Multidrop-Combi dispenser. The final compound concentration was 46 µM in the primary screen. […]

[2] = system: E. rostratum hyphal fragments; test: hyphal fragment fungicidal ATP content assay (PBS, 1536-well); format: cell-based, Exserohilum rostratum; details: Exserohilum rostratum; for Emax: 46 µM Amphotericin B = 100%
Outline: (§1)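 Hyphal fragments (15,000/well in PBS, batch-normalized by carbohydrate OD490) or conidia (250/well in RPMI) were exposed to compound at 46 µM in the primary screen for 24 h at 30 °C. Viability was read as ATPLite luminescence after 15 min at RT and scaled between DMSO (100%) and 46 µM amphotericin B (0%).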

E. rostratum conidia = test: conidia growth inhibition ATP content assay (RPMI, 1536-well); format: cell-based, Exserohilum rostratum; details: for Emax: 46 µM Amphotericin B = 100%
Outline: as §1

SH-SY5Y cells = test: SH-SY5Y cytotoxicity counter-screen (ATP content assay); format: cell-based, Human; details: for SH-SY5Y % Max. Resp.: Table 2, SH-SY5Y, inact. = no significant activity at 46 µM; for SH-SY5Y % M. Res. / SH-SY5Y IC50: Table S1; for SH-SY5Y % M. Res.: Inact. = no significant activity at 46 µM; for SH-SY5Y IC50: Inact. = no significant activity at the highest compound concentration (46 µM); for cytotoxicity in SH-SY5Y mammalian cells: concentration up to 46 µM
Outline: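 SH-SY5Y human neuroblastoma cells grown in DMEM/F-12 with 10% FBS at 37 °C, 5% CO2. Viability counter-screen measured cellular ATP by luciferase luminescence (ATPLite) in 1536-well format.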

[3] = system: E. rostratum hyphal fragments; test: colony formation assay of hyphal fragments; format: cell-based, Exserohilum rostratum; details: 2 times respective IC50, 37°C, 24 h; p<0.01
Description: 10 µl of hyphal suspension (processed as described above) was transferred to 1.7 mL microfuge tubes, each containing 28 nM amphotericin B, 242 nM posaconazole, or 10% DMSO in 1 ml PBS. Tubes containing hyphae and drug were incubated at 37°C in a shaking incubator for 24 h, then 200 µl of the hyphae drug suspension was spread on Yeast Extract Peptone Dextrose (YPD) plates for 24 h at 30°C and the number of colony forming units were scored. The experiments were performed in triplicate.
Mixtures were cultured at 37°C in a shaking incubator for 24 h, then the hyphal suspensions were inoculated on Yeast Extract Peptone Dextrose (YPD) plates that were incubated for 1 day. The number of colonies on each YPD plate was counted.

[4] = design: method as in PMID 12445558; details: 8 hours after intravenous (iv) administration of 20 mg/kg; cited from earlier work
E. rostratum [5] = system: E. rostratum; design: method as in earlier work; details: filamentous fungi M38-A2, this isolate; cited from earlier work
[6] = Table 2, inact. = no significant activity in the primary screen, read-out: Hyphae % Max. Resp.
[7] = Table 2, 24 h, inact. = no significant activity in the primary screen, read-out: Hyphae IC50
[8] = Exserohilum rostratum, 24 h, Table 2, 24 h, inact. = no significant activity at the highest compound concentration (46 µM), read-out: Conidia IC50
[9] = Exserohilum rostratum, Table 2, inact. = no significant activity at 46 µM, read-out: Conidia % Max. Resp.
[10] = Table S1, Inact. = no significant activity in the primary screen, read-out: Hyphae % M. Res.
[11] = Exserohilum rostratum, Table S1, Inact. = no significant activity at 46 µM, read-out: Conidia % M. Res.
[12] = Figure 5, read-out: IC50 Hyphae
[13] = Exserohilum rostratum, Figure 5, read-out: IC50 Conidia

Row | Structure (SMILES) | Emax [2, 6] [%] | IC50 [2, 7] [µM] | IC50 (E. rostratum conidia; [8]) [µM] | Emax (E. rostratum conidia; [9]) [%] | SH-SY5Y % Max. Resp. (SH-SY5Y cells; 46 µM Amphotericin B = 100%) | SH-SY5Y % Max. Resp. (SH-SY5Y cells) | hyphae-derived colony forming units (CFU) compared to DMSO control [3] | value determined from the microdilution method (E. rostratum [5]) | IC50 [2, 12] [µM] | IC50 (E. rostratum conidia; [13]) [µM] | cytotoxicity in SH-SY5Y mammalian cells (SH-SY5Y cells) | other results
1 | CCCSc1ccc2nc(NC(=O)OC)[nH]c2c1 [albendazole] | – | – | – | – | – | – | – | – | – | – | – | activity against E. rostratum (E. rostratum [1]): not active
2 | O=c1[nH]c(=O)n([C@H]2C[C@H](O)[C@@H](CO)O2)cc1F [Floxuridine] | 77 | 0.846 | 0.288 | 29 | inact. | inact. | significantly reduced | – | – | – | – | brain concentrations [4]: above 600 nM
3 | C[C@@H]1[C@H](O)[C@@H](C)/C=C/C=C/C=C/C=C/C=C/C=C/C=C/[C@H](O[C@@H]2O[C@H](C)[C@@H](O)[C@H](N)[C@@H]2O)C[C@@H]2O[C@](O)(C[C@@H](O)C[C@@H](O)[C@H](O)CC[C@@H](O)C[C@@H](O)CC(=O)O[C@H]1C)C[C@H](O)[C@H]2C(=O)O [Amphotericin B] | 84 | 0.014 | 0.012 | 104 | inact. | inact. | significantly reduced | 60 nM | – | – | – | IC50 ([2]; 15000 fragments/well, read-out: hyphae IC50): 0.0124 µM; Emax [2, 10]: 84%; IC50 (E. rostratum conidia; 250 conidia/well, read-out: conidia IC50): 0.00971 µM; IC50 (E. rostratum conidia; Exserohilum rostratum, Table S1, Inact. = no significant activity at the highest compound concentration (46 µM), read-out: Conidia IC50): 0.806 µM; IC50 (E. rostratum conidia; Exserohilum rostratum, 250 conidia/well, read-out: conidia IC50): 0.00941 µM; Emax (E. rostratum conidia; [11]): 104%; SH-SY5Y % M. Res. (SH-SY5Y cells; 46 µM Amphotericin B = 100%): Inact.; SH-SY5Y IC50 (SH-SY5Y cells): Inact.
4 | C[C@@H](c1ncncc1F)[C@](O)(Cn1cncn1)c1ccc(F)cc1F [Voriconazole] | 94 | 2.6 | 2.9 | 101 | inact. | inact. | significantly reduced | 2 µg/ml and 5.7 µM | 2.82 | 3.7 | no significant cytotoxicity | IC50 ([2]; read-out: hyphae IC50): 2.64 µM; IC50 (E. rostratum conidia; Exserohilum rostratum, read-out: conidia IC50): 2.91 µM
5 | C=CC[C@@H]1/C=C(\C)C[C@H](C)C[C@H](OC)[C@H]2O[C@@](O)(C(=O)C(=O)N3CCCC[C@H]3C(=O)O[C@H](/C(C)=C/[C@@H]3CC[C@@H](O)[C@H](OC)C3)[C@H](C)[C@@H](O)CC1=O)[C@H](C)C[C@@H]2OC [Tacrolimus] | 83 | 0.032 | 0.024 | 101 | inact. | inact. | significantly reduced | – | 0.031 | 0.036 | no significant cytotoxicity | –
6 | N#C/C(=C1/SC[C@@H](c2ccc(Cl)cc2Cl)S1)n1ccnc1 [Luliconazole] | 82 | 6.4 | 4.39 | 100 | inact. | inact. | significantly reduced | – | – | – | – | Emax [2, 10]: 82%; Emax (E. rostratum conidia; [11]): 100%; SH-SY5Y % M. Res. (SH-SY5Y cells; 46 µM Amphotericin B = 100%): Inact.; SH-SY5Y IC50 (SH-SY5Y cells): Inact.
7 | CC[C@@H]([C@H](C)O)n1ncn(-c2ccc(N3CCN(c4ccc(OC[C@@H]5CO[C@@](Cn6cncn6)(c6ccc(F)cc6F)C5)cc4)CC3)cc2)c1=O [Posaconazole] | 78 | 0.121 | 0.097 | 106 | inact. | inact. | significantly reduced | 0.25 µg/ml and 360 nM | 0.164 | 0.079 | no significant cytotoxicity | –
